≈ marks a conversion by molar mass, not a printed value. Read-outs that look alike come from different tables or passages of the source.
Legend:
M. abscessus TrmD [1] = target: T1, M. abscessus TrmD (Mycobacteroides abscessus, UniProt B1MDI3); assay: TrmD methylation (methyltransferase) inhibition assay, UPLC readout; format: biochemical; conditions: for IC50: 6.25 μM SAM, 0.1 μM TrmD, 6.25 μM tRNA ProUGG, 1 h room temperature
Description: Assays for quantifying TrmD methylation reactions were carried out in 20 μl reactions consisting of 6.25 μM SAM, 0.1 μM TrmD and 6.25 μM tRNA^ProUGG in the presence of 0–500 μM compounds in serial dilutions using assay buffer containing 50 mM Tris–HCl pH 7.5, 10 mM MgCl2, 24 mM NH4Cl, 5% DMSO and 1 mM DTT in nuclease free water. tRNA sequences were identified from the M. abscessus genome sequence using tRNAscan-SE algorithm, ([38],[39]). […]. The reactions were carried out for 1 h at room temperature followed by addition of 20 mM EDTA to stop the reactions. Each of the 20 μl samples were diluted ten-fold with the UPLC mobile phase solvent A (0.1% formic acid in water), centrifuged for 10 min at 13 000 g, to remove any precipitates, and the supernatant was aliquoted into 96-well plates. 40 μl samples were then injected into Acquity UPLC (Waters) T3 […] column and eluted using a gradient elution consisting of Mobile Phase A: 0.1% formic acid in water and mobile phase B: 0.1% formic acid in 100% methanol for 4 min. The absorbance was monitored using a photodiode array (PDA) detector (Waters) at wavelength range of ƛ: 220–500 nm. All reactions were carried out in triplicate. The blank corrected data were analyzed using Microsoft excel and non-linear regression analysis for IC50 determination were done using GraphPad prism version 7.00, GraphPad Software, La Jolla, CA, USA.

M. abscessus TrmD [2] = target: T1, M. abscessus TrmD; assay: biochemical; format: binding; conditions: for LE (ligand efficiency): from M. abscessus TrmD Kd; for fold improvement in affinity (decrease in Kd) over the parent compound: AW3 vs AW2, AW4 vs AW3, AW5 vs AW4
M. abscessus = assay: MIC measurement, M. abscessus; format: cell-based, Mycobacterium abscessus ssp. abscessus (ATCC 19977); conditions: Mycobacteroides abscessus, ATCC19977; ATCC 19977, Middlebrook 7H9 ADC, 37°C; read-out: Minimum inhibitory concentration (MIC) M. abscessus
M. tuberculosis H37Rv = assay: MIC measurement, M. tuberculosis; format: cell-based; conditions: Mycobacterium tuberculosis, 336 h, 7H9 base with DPPC, 2 weeks, 37°C, read-out: Minimum inhibitory concentration (MIC) M. tuberculosis
human macrophages = assay: LDH release cytotoxicity assay; format: cell-based; conditions: at or below a concentration of 150 μM
Description: Blood samples were donated by healthy volunteers who had undertaken informed consent in accordance with local Research Ethics Committee approval. Peripheral blood mononuclear cells were isolated from citrated peripheral blood samples by density gradient separation using Lympholyte (Cedarlane Labs), and subsequent CD14^+ positive selection using the MACS Miltenyi Biotec Human CD14 microbead protocol (Miltenyi Biotec). CD14^+ cells were differentiated into macrophages using recombinant human granulocyte-macrophage colony-stimulating factor (200 ng/ml GM-CSF) and recombinant human interferon gamma (50 ng/ml IFNγ) (Peprotech) in standard tissue culture DMEM media containing fetal calf serum, penicillin and streptomycin. […] At the given time points, supernatant was saved for cell cytotoxicity studies, and M. abscessus survival within the macrophages calculated by macrophage lysis in sterile water, and colony forming unit calculation on Columbia Blood Agar plates (VWR BDH).
Lactate dehydrogenase (LDH) was measured as a biomarker for cellular cytotoxicity using the Pierce LDH Cytotoxicity Assay Kit. Cell supernatant was measured at 2, 24 and 48 h post-infection according to the kit protocol.

M. fortuitum = assay: MIC measurement, M. fortuitum; format: cell-based; conditions: Mycolicibacterium fortuitum; clinical isolate; read-out: Minimum inhibitory concentration (MIC) M. fortuitum
[3] = test system: M. abscessus-infected human macrophages; assay: Macrophage infection study (CFU of intracellular M. abscessus); format: cell-based, Mycobacterium abscessus; conditions: 25 μM compound, 48 h incubation
Description: Blood samples were donated by healthy volunteers who had undertaken informed consent in accordance with local Research Ethics Committee approval. Peripheral blood mononuclear cells were isolated from citrated peripheral blood samples by density gradient separation using Lympholyte (Cedarlane Labs), and subsequent CD14^+ positive selection using the MACS Miltenyi Biotec Human CD14 microbead protocol (Miltenyi Biotec). CD14^+ cells were differentiated into macrophages using recombinant human granulocyte-macrophage colony-stimulating factor (200 ng/ml GM-CSF) and recombinant human interferon gamma (50 ng/ml IFNγ) (Peprotech) in standard tissue culture DMEM media containing fetal calf serum, penicillin and streptomycin. Following removal of antibiotics, macrophages were infected at a multiplicity of infection of 10:1 with M. abscessus 19977 for 2 h, washed in sterile phosphate buffered saline, and then incubated in DMEM media with FCS and 25 μM of compound for 24 and 48 h. At the given time points, supernatant was saved for cell cytotoxicity studies, and M. abscessus survival within the macrophages calculated by macrophage lysis in sterile water, and colony forming unit calculation on Columbia Blood Agar plates (VWR BDH).

M. avium = assay: MIC measurement, M. avium; format: cell-based; conditions: Mycobacterium avium; clinical isolate; read-out: Minimum inhibitory concentration (MIC) M. avium
M. tuberculosis TrmD = M. tuberculosis TrmD (Mycobacterium tuberculosis, UniProt P9WFY7); assay: Isothermal titration calorimetry (ITC) with M. tuberculosis TrmD; format: binding
Sequence of M. tuberculosis TrmD (P9WFY7 whole entry): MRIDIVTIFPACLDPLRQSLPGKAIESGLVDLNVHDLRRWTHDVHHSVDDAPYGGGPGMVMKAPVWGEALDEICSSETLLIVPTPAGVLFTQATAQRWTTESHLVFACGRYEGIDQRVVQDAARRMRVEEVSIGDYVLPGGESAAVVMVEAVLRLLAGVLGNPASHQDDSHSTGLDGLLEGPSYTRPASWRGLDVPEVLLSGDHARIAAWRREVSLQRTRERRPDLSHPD
Description: ITC experiments to quantify binding of ligands to TrmD were done as described in ([37]) using Malvern MicroCal iTC200 or Auto-iTC200 systems at 25°C. Titrations consisted of an initial injection (0.2 μl), discarded during data processing, followed by either 19 (2 μl) or 39 (1 μl) injections separated by intervals of 60–150 s duration. Protein was dialysed overnight at 4°C in storage buffer (M. abscessus TrmD: 50 mM HEPES pH 7.5, 500 mM NaCl, 5% glycerol; M. tuberculosis TrmD: 25 mM HEPES pH 7.5, 500 mM NaCl). Sample cell and syringe solutions were prepared using the same storage buffer, with a final DMSO concentration of 2–10% according to ligand solubility in the buffer. TrmD concentrations of either 33 or 100 μM were used, with ligand to protein concentration ratios ranging from 10 to 20:1. Control titrations without protein were also performed and subtracted from ligand to protein titrations. Titrations were fitted with Origin software (OriginLab, Northampton, MA, USA), using a one-site binding model with N fixed to 1 only for weakly binding ligands. Titrations were typically performed once (n = 1), with multiple isotherms obtained (n > 1) for key compounds of interest. Kd values are reported to two significant figures. Error provided by Origin software due to model fit is reported when n = 1, whereas standard deviation is reported when n > 1.

M. gordonae = assay: MIC measurement, M. gordonae; format: cell-based; conditions: Mycobacterium gordonae; clinical isolate; read-out: Minimum inhibitory concentration (MIC) M. gordonae
M. terrae = assay: MIC measurement, M. terrae; format: cell-based; conditions: Mycolicibacter terrae; clinical isolate; read-out: Minimum inhibitory concentration (MIC) M. terrae
M. chelonae = assay: MIC measurement, M. chelonae; format: cell-based; conditions: Mycobacteroides chelonae; clinical isolate; read-out: Minimum inhibitory concentration (MIC) M. chelonae
[4] = test system: M. leprae maintained intracellularly in murine bone marrow macrophage; assay: Intracellular M. leprae in murine bone marrow macrophages, radiorespirometry; format: cell-based; conditions: Mycobacterium leprae, 168 h, AW7 at 6.2 μM, 7 days, read-out: inhibition of β-oxidation (14C-palmitic acid oxidation, radiorespirometry)
Description: Bone marrow cells were obtained aseptically from both femurs of female BALB/c mice and cultured on plastic cover slips in Dulbecco modified Eagle's medium (DMEM, Life Technologies, USA) supplemented with 10% (v/v) fetal calf serum (Life Technologies), 25 mM/l HEPES (Sigma, USA), 2 mM/l glutamine (Sigma, USA), 50 μg/ml ampicillin (Sigma, USA) and 10 ng/ml of recombinant murine macrophages colony stimulating factor (R&D Systems, USA) for 6–7 days at 37°C and 5% CO2. The cells were infected with freshly harvested nude mice foot pad derived live M. leprae at a multiplicity of infection (MOI) of 20:1 overnight at 33°C and then washed to remove extracellular bacteria. AW7 was added at different concentrations (100–6.25 μM) and the cells were incubated for 7 days at 33°C. Media only and rifampicin at 2.4 μM were used as negative and positive controls. […]
Metabolism of a suspension of M. leprae was measured by evaluating the oxidation of ^14C-palmitic acid to ^14CO2 by radiorespirometry as described previously ([45]). […] In the present study the seventh day cumulative counts per minute (CPM) were recorded and percentage inhibition of metabolism determined as compared to no drug control. Statistical significance between treatment groups and no drug control were determined by Student's t-test and P < 0.05 is considered as significant.

[5] = test system: axenically-maintained M. leprae; assay: M. leprae axenic culture, radiorespirometry; format: cell-based, Mycobacterium leprae; conditions: 100-6.25 μM, 7 days, 33°C
Description: Freshly harvested nude mouse foot pad derived M. leprae were suspended in modified 7H12 medium, AW7 was added at different concentrations (100–6.25 μM) and were incubated for 7 days at 33°C. Media only and rifampin (Sigma, USA) at 2.4 μM were used as negative and positive controls. Following incubation aliquots of AW7 treated and control M. leprae were processed for radiorespirometry (RR) as described previously ([43]).
Metabolism of a suspension of M. leprae was measured by evaluating the oxidation of ^14C-palmitic acid to ^14CO2 by radiorespirometry as described previously ([45]). Levels of captured ^14CO2 is proportional to the rate of ^14C-palmitic acid oxidation and used as an indicator of M. leprae viability. In the present study the seventh day cumulative counts per minute (CPM) were recorded and percentage inhibition of metabolism determined as compared to no drug control. Statistical significance between treatment groups and no drug control were determined by Student's t-test and P < 0.05 is considered as significant.

M. abscessus TrmD [6] = target: T1, M. abscessus TrmD; assay: CRISPR-dCas9 knockdown of trmD in M. abscessus (target engagement); conditions: 25 μM AW7, doxycycline 1.5625-100 ng/ml, 72 h; effect not seen with yidC gRNA or empty vector
Description: The dCas9 encoding plasmid (pTetInt-dcas9-Km) and the second vector containing the sgRNA cassette (pGRNAz) were derived from the tetracycline inducible CRISPr Interference system of Choudhary et al. ([40]) and optimized for M. abscessus ATCC19977. The 20 nucleotides guides targeting yidC(MAB_4953c) and trmD(MAB_3226c) were annealed and cloned in between sphI and aclI of the pGRNAz. As a control the pGRNAz was left empty. The CRISPr-I containing strains were cultivated in Middlebrook 7H9 broth supplemented with 1× ADC, 0.05% tween80 and 0.5% glycerol, hygromycin 1 mg/ml and zeocin 300 μg/ml. The cultures were inoculated at 10^6CFU/ml from an exponentially grown pre-cultures. […] The OD600 was measured and the CFU counted at 72 h.

[7] = ITC, 25°C, M. abscessus TrmD, read-out: Kd

T1 sequence (B1MDI3 entry or part of it): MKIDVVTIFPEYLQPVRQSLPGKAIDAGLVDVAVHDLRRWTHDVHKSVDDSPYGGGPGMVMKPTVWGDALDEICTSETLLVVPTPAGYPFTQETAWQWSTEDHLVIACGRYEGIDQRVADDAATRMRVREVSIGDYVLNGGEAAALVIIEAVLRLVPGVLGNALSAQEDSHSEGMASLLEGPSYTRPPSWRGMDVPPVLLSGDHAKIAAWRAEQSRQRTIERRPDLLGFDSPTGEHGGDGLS

Row | Structure (SMILES) | IC50 (M. abscessus TrmD [1]) [nM] | Kd (M. abscessus TrmD [2]; [7]) [nM] | LE (ligand efficiency) (M. abscessus TrmD [2]) [kcal/ mol/ heavy atom] | fold improvement in affinity (decrease in Kd) over the parent compound (M. abscessus TrmD [2]) [fold] | MIC (M. abscessus) [µM] | MIC (M. tuberculosis H37Rv) [µM] | other results
1 | Nc1cc(-c2ccc3cc[nH]c3c2)[nH]n1 [AW1] | 230000 ± 29000 | 110000 ± 11000 | 0.36 | – | – | – | –
2 | Nc1cc(-c2ccc3ccn(Cc4ccccn4)c3c2)[nH]n1 [AW2] | 33000 ± 4000 | 12000 ± 1000 | 0.30 | – | – | – | –
3 | N#Cc1c(N)n[nH]c1-c1ccc2ccn(Cc3ccccn3)c2c1 [AW3] | 310 ± 10 | 500 ± 140 | 0.36 | 25 | – | – | fold decrease in IC50 over the parent compound (M. abscessus TrmD [1]; AW3 vs AW2): 100 fold
4 | N#Cc1c(N)n[nH]c1-c1ccc2ccn(Cc3ccc(CN4CCCC4)cn3)c2c1 [AW4] | – | 92 ± 18 | 0.32 | 5 | – | – | –
5 | N#Cc1c(N)n[nH]c1-c1ccc2ccn(Cc3ccc(CN4CCCC4)cc3)c2c1 [AW5] | 30 ± 3 | 27 ± 4 | 0.34 | > 3 | 50 (≈ 19.8 µg/mL) | 12.5 (≈ 4.96 µg/mL) | –
6 | Nc1cc(-c2ccc3ccn(Cc4ccc(CN5CCCC5)cc4)c3c2)[nH]n1 [AW6] | 1400 ± 100 | – | 0.31 | – | 50 (≈ 18.6 µg/mL) | 6.3 (≈ 2.34 µg/mL) | cellular toxicity (LDH release) (human macrophages): neither compound caused cellular toxicity; MIC (M. fortuitum): 100 µM (≈ 37.1 µg/mL); decrease in CFUs compared to the no drug control [3]: ~82%; MIC (M. avium): 200 µM (≈ 74.3 µg/mL); Kd (M. abscessus TrmD [2]): 490 ± 210 nM; Kd (M. tuberculosis TrmD): 900 nM; MIC (M. gordonae): 100 µM (≈ 37.1 µg/mL); MIC (M. terrae): 100 µM (≈ 37.1 µg/mL); MIC (M. chelonae): 100 µM (≈ 37.1 µg/mL)
7 | CN1CCN(Cc2ccc(Cn3ccc4ccc(-c5[nH]nc(N)c5C#N)cc43)cc2)CC1 [AW7] | 69 ± 7 | – | 0.30 | – | 50 (≈ 21.3 µg/mL) | 6.3 (≈ 2.68 µg/mL) | cellular toxicity (LDH release) (human macrophages): neither compound caused cellular toxicity; MIC (M. fortuitum): 100 µM (≈ 42.6 µg/mL); decrease in CFUs compared to the no drug control [3]: 95%; inhibition at 6.2 µM [4]: > 50%; inhibitory activity against axenic M. leprae (radiorespirometry) [5]: show inhibitory activity; MIC (M. avium): 100 µM (≈ 42.6 µg/mL); Kd (M. abscessus TrmD [2]): 73 ± 30 nM; sensitivity of M. abscessus to the compound on incremental silencing of TrmD (M. abscessus TrmD [6]): progressively more sensitive to AW7; Kd (M. tuberculosis TrmD): 330 nM; MIC (M. gordonae): 100 µM (≈ 42.6 µg/mL); MIC (M. terrae): 25 µM (≈ 10.6 µg/mL); MIC (M. chelonae): 100 µM (≈ 42.6 µg/mL)
8 | COc1ccc(-c2cc(N)n[nH]2)cc1 [Fragment 23] | – | 170000 | 0.37 | – | – | – | –
9 | OB(O)c1ccc2cc[nH]c2c1 [Fragment 24] | – | 260000 | 0.41 | – | – | – | –

Reference: paper PMC7641325, “Fragment-based discovery of a new class of inhibitors targeting mycobacterial tRNA modification” (Nucleic Acids Research, 2020)
